# Where “and” joins values, the source holds several entries; their conditions need not be identical. Equal values may be shown once. Read-outs that look alike come from different tables or passages of the source.
# Legend:
# CYP3A = conditions: stand-alone DDI studies and PBPK modeling; cited from earlier work
# [1] = Model-predicted / simulated lemborexant exposure across covariates; parameters: species or system human
# [2] = study 201, 15-day treatment, cited from earlier work
# [3] = cited from earlier work
# [4] = Logistic regression exposure-response analysis of TEAE probability; conditions: for Headache TEAE probability / Influenza TEAE probability / Nasopharyngitis TEAE probability / Somnolence TEAE probability / Upper Respiratory Tract Infection TEAE probability / Urinary Tract Infection TEAE probability: person
# [5] = coadministration with famotidine; cited from earlier work
# [6] = Observed incidence of treatment-emergent adverse events in clinical studies
# [7] = Population PK final model; assay type: in vivo, human
# [8] = cited from earlier work; remark: listed apart in the source
# [9] = oral [14C]lemborexant, healthy subjects, ref study E2006-A001-007, NCT02046213
# [10] = 5 mg, 5th quantile, Cav,ss 6.30 ng/mL
# [11] = 5 mg, 25th quantile, Cav,ss 7.90 ng/mL
# [12] = 5 mg, 50th quantile, Cav,ss 10.00 ng/mL
# [13] = 5 mg, 75th quantile, Cav,ss 14.00 ng/mL
# [14] = 5 mg, 95th quantile, Cav,ss 19.00 ng/mL
# [15] = 10 mg, 5th quantile, Cav,ss 12.00 ng/mL
# [16] = 10 mg, 25th quantile, Cav,ss 17.00 ng/mL
# [17] = 10 mg, 50th quantile, Cav,ss 21.00 ng/mL
# [18] = 10 mg, 75th quantile, Cav,ss 27.00 ng/mL
# [19] = 10 mg, 95th quantile, Cav,ss 37.00 ng/mL
# [20] = studies 202, 303, 304, 5 to 15 mg
smiles,measurement,setting,value
Cc1ncc(OC[C@@]2(c3cccc(F)c3)C[C@H]2C(=O)Nc2ccc(F)cn2)c(C)n1 [Lemborexant],Interaction with moderate and strong CYP3A inhibitors,CYP3A,clinically meaningful interaction
same,Higher exposure for high ALP,"[1]; ALP 150 U/L, relative to population average",9%
same,Lower exposure for underweight,"[1]; BMI 15 kg/m^2, relative to typical subject with normal BMI",25%
same,Higher exposure for class 1 obesity,"[1]; BMI 32 kg/m^2, relative to typical subject with normal BMI",11%
same,Exposure elevation in high ALP subjects,[1]; high ALP,8%
same,Exposure elevation in obese subjects,[1]; high BMI,up to 20%
same,Higher CL/F for ALP at the upper range of normal over the typical subject,[1]; model prediction,7%
same,Higher exposure in the elderly,"[1]; model prediction, relative to population average / adult insomnia population",26%
same,Somnolence frequency,[2]; 1-mg group,3.1%
same,Somnolence frequency,[2]; 25-mg group,22.0%
same,Fraction of the dose bioavailable,[3]; [9],at least 87%
same,Unchanged lemborexant in feces,[3]; [9],13.0%
same,Unchanged lemborexant in urine,[3]; [9],not detected
same,Administered dose recovered as unchanged drug in urine,"[3]; single ascending-dose study, ref study 001, NCT01463098",< 1%
same,Headache TEAE probability,[4]; [10],11.0 (7.8‐14.0)
same,Influenza TEAE probability,[4]; [10],3.8 (2.3‐6.2)
same,Nasopharyngitis TEAE probability,[4]; [10],10.0 (7.5‐14.0)
same,Somnolence TEAE probability,[4]; [10],7.2 (5.3‐9.7)
same,Upper Respiratory Tract Infection TEAE probability,[4]; [10],4.7 (2.9‐7.3)
same,Urinary Tract Infection TEAE probability,[4]; [10],2.0 (1.2‐3.5)
same,Headache TEAE probability,[4]; [11],9.8 (7.6‐13.0)
same,Influenza TEAE probability,[4]; [11],3.6 (2.3‐5.5)
same,Nasopharyngitis TEAE probability,[4]; [11],9.5 (7.3‐12.0)
same,Somnolence TEAE probability,[4]; [11],7.4 (5.7‐9.7)
same,Upper Respiratory Tract Infection TEAE probability,[4]; [11],4.4 (2.9‐6.4)
same,Urinary Tract Infection TEAE probability,[4]; [11],2.1 (1.3‐3.5)
same,Headache TEAE probability,[4]; [12],9.2 (7.3‐11.0)
same,Influenza TEAE probability,[4]; [12],3.4 (2.3‐4.9)
same,Nasopharyngitis TEAE probability,[4]; [12],8.9 (7.1‐11.0)
same,Somnolence TEAE probability,[4]; [12],7.7 (6.1‐9.7)
same,Upper Respiratory Tract Infection TEAE probability,[4]; [12],4.1 (2.9‐5.7)
same,Urinary Tract Infection TEAE probability,[4]; [12],2.3 (1.4‐3.5)
same,Headache TEAE probability,[4]; [13],8.3 (6.8‐10.0)
same,Influenza TEAE probability,[4]; [13],3.1 (2.2‐4.3)
same,Nasopharyngitis TEAE probability,[4]; [13],8.1 (6.6‐9.8)
same,Somnolence TEAE probability,[4]; [13],8.1 (6.6‐9.9)
same,Upper Respiratory Tract Infection TEAE probability,[4]; [13],3.6 (2.7‐4.9)
same,Urinary Tract Infection TEAE probability,[4]; [13],2.5 (1.7‐3.6)
same,Headache TEAE probability,[4]; [14],6.8 (5.3‐8.6)
same,Influenza TEAE probability,[4]; [14],2.6 (1.8‐3.9)
same,Nasopharyngitis TEAE probability,[4]; [14],6.7 (5.2‐8.6)
same,Somnolence TEAE probability,[4]; [14],8.9 (7.3‐11.0)
same,Upper Respiratory Tract Infection TEAE probability,[4]; [14],3.0 (2.0‐4.3)
same,Urinary Tract Infection TEAE probability,[4]; [14],2.9 (2.0‐4.1)
same,Headache TEAE probability,[4]; [15],9.2 (7.4‐12.0)
same,Influenza TEAE probability,[4]; [15],3.4 (2.3‐4.9)
same,Nasopharyngitis TEAE probability,[4]; [15],8.9 (7.1‐11.0)
same,Somnolence TEAE probability,[4]; [15],7.7 (6.0‐9.7)
same,Upper Respiratory Tract Infection TEAE probability,[4]; [15],4.1 (2.9‐5.7)
same,Urinary Tract Infection TEAE probability,[4]; [15],2.2 (1.4‐3.5)
same,Headache TEAE probability,[4]; [16],7.7 (6.3‐9.4)
same,Influenza TEAE probability,[4]; [16],2.9 (2.1‐4.1)
same,Nasopharyngitis TEAE probability,[4]; [16],7.6 (6.2‐9.3)
same,Somnolence TEAE probability,[4]; [16],8.4 (6.9‐10.0)
same,Upper Respiratory Tract Infection TEAE probability,[4]; [16],3.4 (2.5‐4.6)
same,Urinary Tract Infection TEAE probability,[4]; [16],2.6 (1.8‐3.7)
same,Headache TEAE probability,[4]; [17],6.8 (5.3‐8.6)
same,Influenza TEAE probability,[4]; [17],2.6 (1.8‐3.9)
same,Nasopharyngitis TEAE probability,[4]; [17],6.7 (5.2‐8.6)
same,Somnolence TEAE probability,[4]; [17],8.9 (7.3‐11.0)
same,Upper Respiratory Tract Infection TEAE probability,[4]; [17],3.0 (2.0‐4.3)
same,Urinary Tract Infection TEAE probability,[4]; [17],2.9 (2.0‐4.0)
same,Headache TEAE probability,[4]; [18],5.7 (4.0‐8.1)
same,Influenza TEAE probability,[4]; [18],2.3 (1.3‐4.0)
same,Nasopharyngitis TEAE probability,[4]; [18],5.8 (4.0‐8.1)
same,Somnolence TEAE probability,[4]; [18],9.6 (7.6‐12.0)
same,Upper Respiratory Tract Infection TEAE probability,[4]; [18],2.5 (1.5‐4.3)
same,Urinary Tract Infection TEAE probability,[4]; [18],3.3 (2.2‐4.9)
same,Headache TEAE probability,[4]; [19],3.9 (2.0‐7.4)
same,Influenza TEAE probability,[4]; [19],1.7 (0.6‐4.7)
same,Nasopharyngitis TEAE probability,[4]; [19],4.0 (2.1‐7.7)
same,Somnolence TEAE probability,[4]; [19],11.0 (7.5‐17.0)
same,Upper Respiratory Tract Infection TEAE probability,[4]; [19],1.7 (0.6‐4.6)
same,Urinary Tract Infection TEAE probability,[4]; [19],4.4 (2.2‐8.7)
same,"Cav,ss as linear predictor of the probability of specific TEAEs (somnolence, nasopharyngitis, flu/influenza, urinary tract infection, upper respiratory tract infection, headache)",[4]; with and without adjustment for age,not a clinically meaningful linear predictor
same,Decrease in lemborexant Cmax,[5],27%
same,Delay in the median tmax,[5],30 min
same,Effect on lemborexant AUC0-t and AUC0-inf,[5],no significant effect
same,"Somnolence rate, treatment",[6]; 9-month SUNRISE 2 study,11%
same,"Nasopharyngitis frequency, active treatment",[6]; [20],8.6%
same,"Upper respiratory tract infection frequency, active treatment",[6]; [20],3.2%
same,"Urinary tract infection frequency, active treatment",[6]; [20],2.5%
same,"Somnolence rate, treatment",[6]; study 202,6%
same,"Cav,ss","[7]; 5 mg, 5th quantile of Cav,ss",6.30 ng/mL
same,"Cav,ss","[7]; 5 mg, 25th quantile of Cav,ss",7.90 ng/mL
same,"Cav,ss","[7]; 5 mg, 50th quantile of Cav,ss",10.00 ng/mL
same,"Cav,ss","[7]; 5 mg, 75th quantile of Cav,ss",14.00 ng/mL
same,"Cav,ss","[7]; 5 mg, 95th quantile of Cav,ss",19.00 ng/mL
same,"Cav,ss","[7]; 10 mg, 5th quantile of Cav,ss",12.00 ng/mL
same,"Cav,ss","[7]; 10 mg, 25th quantile of Cav,ss",17.00 ng/mL
same,"Cav,ss","[7]; 10 mg, 50th quantile of Cav,ss",21.00 ng/mL
same,"Cav,ss","[7]; 10 mg, 75th quantile of Cav,ss",27.00 ng/mL
same,"Cav,ss","[7]; 10 mg, 95th quantile of Cav,ss",37.00 ng/mL
same,Accumulation ratio,[7]; bedtime once-daily dosing,1.9
same,Effect size of age covariate on CL/F,"[7]; elderly (>65 years old) versus adults, univariate forward addition",126%
same,Oral clearance lower in the elderly,[7]; elderly (≥65 years),26%
same,"CL/F, elderly (categorical covariate factor)",[7]; final model estimate,0.739
same,Interindividual variability CL/F,[7]; final model estimate,48.1 %CV
same,Interindividual variability Q3/F,[7]; final model estimate,56.8 %CV
same,Interindividual variability Q4/F,[7]; final model estimate,46.5 %CV
same,Interindividual variability V2/F,[7]; final model estimate,142 %CV
same,Interindividual variability V3/F,[7]; final model estimate,82.0 %CV
same,Interindividual variability V4/F,[7]; final model estimate,41.4 %CV
same,Q3/F,[7]; final model estimate,32.1 L/h
same,Q4/F,[7]; final model estimate,31.0 L/h
same,"Residual variability, additive (TAD >3 h)",[7]; final model estimate,0.0189 ng/mL
same,"Residual variability, additive (TAD ≤3 h)",[7]; final model estimate,2.62 ng/mL
same,"Residual variability, proportional (TAD > 3 h)",[7]; final model estimate,14.3 % CV
same,"Residual variability, proportional (TAD ≤ 3 h)",[7]; final model estimate,32.9 % CV
same,V2/F,[7]; final model estimate,9.09 L
same,V3/F,[7]; final model estimate,278 L
same,V4/F,[7]; final model estimate,783 L
same,CL/F,"[7]; final model estimate, typical subject",23 L/h and 22.7 L/h
same,CL/F,"[7]; final model, bootstrap median",23.7 L/h
same,"CL/F, elderly (categorical covariate factor)","[7]; final model, bootstrap median",0.713
same,Interindividual variability CL/F,"[7]; final model, bootstrap median",46.8 %CV
same,Interindividual variability Q3/F,"[7]; final model, bootstrap median",42.6 %CV
same,Interindividual variability Q4/F,"[7]; final model, bootstrap median",52.0 %CV
same,Interindividual variability V2/F,"[7]; final model, bootstrap median",131 %CV
same,Interindividual variability V3/F,"[7]; final model, bootstrap median",66.1 %CV
same,Interindividual variability V4/F,"[7]; final model, bootstrap median",38.3 %CV
same,Q3/F,"[7]; final model, bootstrap median",33.0 L/h
same,Q4/F,"[7]; final model, bootstrap median",30.1 L/h
same,"Residual variability, additive (TAD >3 h)","[7]; final model, bootstrap median",0.0203 ng/mL
same,"Residual variability, additive (TAD ≤3 h)","[7]; final model, bootstrap median",2.46 ng/mL
same,"Residual variability, proportional (TAD > 3 h)","[7]; final model, bootstrap median",14.3 % CV
same,"Residual variability, proportional (TAD ≤ 3 h)","[7]; final model, bootstrap median",33.2 % CV
same,V2/F,"[7]; final model, bootstrap median",11.4 L
same,V3/F,"[7]; final model, bootstrap median",289 L
same,V4/F,"[7]; final model, bootstrap median",779 L
same,ALAG1,"[7]; final model, fixed",0.403 h
same,"D1, capsule","[7]; final model, fixed",0.467 h
same,"D1, nighttime dosing (covariate factor)","[7]; final model, fixed",2.33
same,"D1, tablet (covariate factor)","[7]; final model, fixed",0.254
same,"F1, food (covariate factor)","[7]; final model, fixed",1.21
same,Interindividual variability D1,"[7]; final model, fixed",167 %CV
same,Interindividual variability F1,"[7]; final model, fixed",68.1 %CV
same,Interindividual variability Ka,"[7]; final model, fixed",43.8 %CV
same,"Ka, capsule","[7]; final model, fixed",0.532 h⁻¹
same,"Ka, food (covariate factor)","[7]; final model, fixed",0.695
same,"Ka, tablet (covariate factor)","[7]; final model, fixed",1.12
same,Contribution of beta half-life to total dispositional AUC,[7]; from microrate constants,0.2%
same,Contribution of gamma half-life to total dispositional AUC,[7]; from microrate constants,0.4%
same,Fraction of alpha disposition phase of total disposition AUC,[7]; from microrate constants,99.4%
same,calculated logP,[8],3.2

# — paper PMC7689791 (Journal of Clinical Pharmacology, 2020)
